The results in this text go back to ChEMBL document CHEMBL1145498, “A systematic interaction map of validated kinase inhibitors with Ser/Thr kinases” (Proc Natl Acad Sci U S A, 2007).

Experiment [1] concerns the target Calcium/calmodulin-dependent protein kinase type II subunit delta (Homo sapiens) (UniProt Q13557).
Experiment [2] has as its target Calcium/calmodulin-dependent protein kinase type II subunit beta (Homo sapiens) (UniProt Q13554).
The target in experiment [3] is Mitogen-activated protein kinase 11 (Homo sapiens, UniProt Q15759).
The target of experiment [4] is Calcium/calmodulin-dependent protein kinase type II subunit gamma (Homo sapiens) (UniProt Q13555).
Experiment [5] concerns the target T1, Dual specificity mitogen-activated protein kinase kinase 6 (Homo sapiens) (UniProt P52564).
T1 sequence (whole entry): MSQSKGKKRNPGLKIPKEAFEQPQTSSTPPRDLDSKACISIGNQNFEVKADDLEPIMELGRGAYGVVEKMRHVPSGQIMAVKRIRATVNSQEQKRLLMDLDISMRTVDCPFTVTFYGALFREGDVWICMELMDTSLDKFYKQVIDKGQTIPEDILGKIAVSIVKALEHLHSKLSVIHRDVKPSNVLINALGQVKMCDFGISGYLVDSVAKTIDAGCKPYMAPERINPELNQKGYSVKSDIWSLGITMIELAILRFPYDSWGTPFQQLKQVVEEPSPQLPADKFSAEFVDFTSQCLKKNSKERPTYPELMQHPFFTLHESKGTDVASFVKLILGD

Experiment [6] has as its target Dual specificity protein kinase CLK2 (Homo sapiens) (UniProt P49760).
The target in experiment [7] is Glycogen synthase kinase-3 beta (Homo sapiens, UniProt P49841).
For experiment [8], the target named is T2, Serine/threonine-protein kinase VRK1 (Homo sapiens) (UniProt Q99986).
T2 sequence (whole entry): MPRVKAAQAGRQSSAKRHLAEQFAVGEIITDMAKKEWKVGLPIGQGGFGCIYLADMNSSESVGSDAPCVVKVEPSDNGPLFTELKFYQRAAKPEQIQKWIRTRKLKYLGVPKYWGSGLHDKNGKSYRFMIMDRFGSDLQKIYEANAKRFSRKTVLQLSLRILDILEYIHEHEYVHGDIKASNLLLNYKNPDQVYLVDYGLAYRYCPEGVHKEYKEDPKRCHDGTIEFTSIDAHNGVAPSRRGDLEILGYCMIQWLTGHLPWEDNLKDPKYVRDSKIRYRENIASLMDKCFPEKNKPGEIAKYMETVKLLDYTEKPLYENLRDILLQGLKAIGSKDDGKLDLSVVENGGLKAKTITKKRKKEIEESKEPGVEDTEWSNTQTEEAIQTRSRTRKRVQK

Chain of Calcium/calmodulin-dependent protein kinase type II subunit gamma (Homo sapiens) (Q13555 whole entry): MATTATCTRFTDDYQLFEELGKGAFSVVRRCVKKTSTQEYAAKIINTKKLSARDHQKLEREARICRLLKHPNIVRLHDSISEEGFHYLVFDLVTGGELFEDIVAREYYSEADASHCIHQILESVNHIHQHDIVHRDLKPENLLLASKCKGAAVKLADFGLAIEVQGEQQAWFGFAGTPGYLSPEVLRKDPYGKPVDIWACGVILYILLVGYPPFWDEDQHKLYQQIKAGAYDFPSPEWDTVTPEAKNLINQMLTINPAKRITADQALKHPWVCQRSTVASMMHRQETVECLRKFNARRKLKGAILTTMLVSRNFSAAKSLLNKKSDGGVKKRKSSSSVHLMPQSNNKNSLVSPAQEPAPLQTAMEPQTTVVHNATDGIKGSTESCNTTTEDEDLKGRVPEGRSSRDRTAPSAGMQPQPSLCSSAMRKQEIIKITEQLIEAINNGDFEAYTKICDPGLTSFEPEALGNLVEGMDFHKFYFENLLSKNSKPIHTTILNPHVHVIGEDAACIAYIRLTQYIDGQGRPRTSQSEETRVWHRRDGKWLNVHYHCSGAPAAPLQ
Chain of Glycogen synthase kinase-3 beta (P49841 whole entry, looked up): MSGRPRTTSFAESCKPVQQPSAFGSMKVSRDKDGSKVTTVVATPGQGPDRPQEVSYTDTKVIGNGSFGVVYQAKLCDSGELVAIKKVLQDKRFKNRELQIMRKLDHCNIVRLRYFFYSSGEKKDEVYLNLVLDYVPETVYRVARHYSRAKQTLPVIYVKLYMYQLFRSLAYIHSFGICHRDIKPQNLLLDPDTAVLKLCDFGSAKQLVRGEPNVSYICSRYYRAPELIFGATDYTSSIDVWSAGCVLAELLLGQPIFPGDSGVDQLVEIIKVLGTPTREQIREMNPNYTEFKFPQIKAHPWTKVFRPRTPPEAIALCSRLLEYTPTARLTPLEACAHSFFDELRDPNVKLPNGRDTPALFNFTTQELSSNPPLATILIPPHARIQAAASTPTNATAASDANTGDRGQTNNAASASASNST
Chain of Dual specificity protein kinase CLK2 (Homo sapiens) (P49760 whole entry, looked up): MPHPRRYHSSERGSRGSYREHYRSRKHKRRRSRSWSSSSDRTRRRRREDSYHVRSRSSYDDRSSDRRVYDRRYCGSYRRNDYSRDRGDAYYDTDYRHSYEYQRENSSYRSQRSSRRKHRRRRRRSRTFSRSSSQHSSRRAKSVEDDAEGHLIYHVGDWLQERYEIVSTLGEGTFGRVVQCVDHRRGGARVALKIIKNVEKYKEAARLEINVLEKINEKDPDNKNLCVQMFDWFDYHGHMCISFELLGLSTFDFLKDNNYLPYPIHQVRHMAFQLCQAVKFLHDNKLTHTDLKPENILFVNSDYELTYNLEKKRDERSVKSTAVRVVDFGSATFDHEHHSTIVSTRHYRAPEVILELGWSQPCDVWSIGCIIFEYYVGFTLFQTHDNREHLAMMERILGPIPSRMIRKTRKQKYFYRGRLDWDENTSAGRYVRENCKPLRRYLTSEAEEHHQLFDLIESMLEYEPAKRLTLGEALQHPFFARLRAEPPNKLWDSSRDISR
Chain of Calcium/calmodulin-dependent protein kinase type II subunit beta (Homo sapiens) (Q13554 whole entry): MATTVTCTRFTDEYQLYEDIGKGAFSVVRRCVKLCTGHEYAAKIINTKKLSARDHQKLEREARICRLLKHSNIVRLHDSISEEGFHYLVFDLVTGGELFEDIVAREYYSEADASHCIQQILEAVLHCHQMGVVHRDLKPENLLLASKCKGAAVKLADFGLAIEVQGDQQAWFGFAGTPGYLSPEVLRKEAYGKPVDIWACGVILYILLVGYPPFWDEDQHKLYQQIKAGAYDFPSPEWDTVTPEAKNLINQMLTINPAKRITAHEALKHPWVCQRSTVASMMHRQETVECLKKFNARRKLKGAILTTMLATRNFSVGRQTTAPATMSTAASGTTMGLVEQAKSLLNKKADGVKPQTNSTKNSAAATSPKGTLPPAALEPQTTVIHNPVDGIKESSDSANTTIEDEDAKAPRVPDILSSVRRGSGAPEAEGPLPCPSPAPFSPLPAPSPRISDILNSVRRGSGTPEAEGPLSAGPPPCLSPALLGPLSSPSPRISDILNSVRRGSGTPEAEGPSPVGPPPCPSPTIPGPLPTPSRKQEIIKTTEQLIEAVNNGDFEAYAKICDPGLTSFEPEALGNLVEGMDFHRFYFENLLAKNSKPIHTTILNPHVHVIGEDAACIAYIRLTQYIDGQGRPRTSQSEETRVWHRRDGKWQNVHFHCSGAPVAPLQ
Chain of Mitogen-activated protein kinase 11 (Q15759 whole entry): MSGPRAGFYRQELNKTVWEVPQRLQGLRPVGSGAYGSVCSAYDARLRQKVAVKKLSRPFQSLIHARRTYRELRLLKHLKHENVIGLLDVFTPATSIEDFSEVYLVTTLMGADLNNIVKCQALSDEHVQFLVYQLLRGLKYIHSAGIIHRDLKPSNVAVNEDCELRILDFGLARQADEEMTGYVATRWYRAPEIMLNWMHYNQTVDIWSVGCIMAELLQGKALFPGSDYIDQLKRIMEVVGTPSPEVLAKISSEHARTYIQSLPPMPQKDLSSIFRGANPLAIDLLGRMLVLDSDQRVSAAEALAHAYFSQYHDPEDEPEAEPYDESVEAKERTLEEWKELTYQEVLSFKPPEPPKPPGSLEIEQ
Chain of Calcium/calmodulin-dependent protein kinase type II subunit delta (Homo sapiens) (Q13557 whole entry): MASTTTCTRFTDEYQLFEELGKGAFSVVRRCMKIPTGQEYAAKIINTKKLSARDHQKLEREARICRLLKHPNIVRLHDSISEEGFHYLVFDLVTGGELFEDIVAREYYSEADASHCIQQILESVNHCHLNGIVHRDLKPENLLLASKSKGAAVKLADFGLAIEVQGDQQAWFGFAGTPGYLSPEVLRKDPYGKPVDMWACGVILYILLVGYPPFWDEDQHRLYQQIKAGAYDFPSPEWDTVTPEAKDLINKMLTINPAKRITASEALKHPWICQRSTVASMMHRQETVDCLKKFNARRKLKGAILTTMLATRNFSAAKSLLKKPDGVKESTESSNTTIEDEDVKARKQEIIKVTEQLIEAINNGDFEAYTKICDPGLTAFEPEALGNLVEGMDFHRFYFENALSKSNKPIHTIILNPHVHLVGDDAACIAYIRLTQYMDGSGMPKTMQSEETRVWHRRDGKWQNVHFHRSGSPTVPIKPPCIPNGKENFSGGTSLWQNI

A word on the ΔTm: it is the change in melting temperature against a reference sample. Turning to `O=c1cc(N2CCOCC2)oc2c1ccc1ccccc12`, the ΔTm in experiment [1] is -0.2 °C; in experiment [2], 0.3 °C; in experiment [3], 1.1 °C; in experiment [4], 0.2 °C; in experiment [5] it was 0 °C; in experiment [6], 0.8 °C. Further, the values for the ΔTm in experiment [7] and in experiment [8] were 1.1 °C and 0 °C, respectively.

Take `Cc1ccc(NC(=O)c2cccc(N(C)C)c2)cc1NC(=O)c1ccc(O)cc1`: the shift in melting temperature (ΔTm) in experiment [1] worked out at 0 °C; in experiment [2] it was 0.4 °C; in experiment [3], 4.1 °C; in experiment [4], 0.1 °C; in experiment [5] it was 0 °C; in experiment [6], 0.2 °C. The ΔTm in experiment [7] was 0 °C; in experiment [8], -0.3 °C.

In the case of `CCN1/C(=C/C(C)=O)Sc2ccc(OC)cc21`, the thermal shift (ΔTm) in experiment [1] was -0.6 °C; in experiment [2], 0.3 °C; in experiment [3], -0.1 °C; in experiment [4], 0.1 °C; in experiment [5], 0.3 °C; in experiment [6] it was 4.1 °C. The ΔTm in experiment [7] came to 1.4 °C; in experiment [8], 0.3 °C.

`N#CC(C#N)=Cc1ccc(O)c(O)c1` [TYRPHOSTIN 23]: the ΔTm is 0.4 °C in experiment [1]; 0.1 °C in experiment [2]; 0.3 °C in experiment [3]; -0.1 °C in experiment [4]; 0.2 °C in experiment [5]; 0.1 °C in experiment [6]. Also, the ΔTm in experiment [7] amounted to 0.8 °C; in experiment [8], 0.1 °C.

Take `Cc1c2ccncc2c(C)c2c1[nH]c1ccccc12` [ELLIPTECINE]: the ΔTm in experiment [1] is -0.3 °C; in experiment [2], 1 °C; in experiment [3] it was 0.6 °C; in experiment [4], 1.6 °C; in experiment [5] it was 6.3 °C; in experiment [6], 3.3 °C. Further, the ΔTm is 5.6 °C in experiment [7] and 0.4 °C in experiment [8].

Take `NC(=O)c1ccc2[nH]c(-c3ccc(Oc4ccc(Cl)cc4)cc3)nc2c1`: the ΔTm in experiment [1] was 1.5 °C; in experiment [2], 0.5 °C; in experiment [3], -0.4 °C; in experiment [4], -0.1 °C; in experiment [5], 0.4 °C; in experiment [6] it was -0.4 °C. In addition, the ΔTm was 1 °C in experiment [7] and 0.5 °C in experiment [8].

For the molecule `COc1cc(OC)c(/C=C2\C(=O)Nc3ccccc32)c(OC)c1`, the ΔTm in experiment [1] is -0.3 °C; in experiment [2], 0.1 °C; in experiment [3], 0.6 °C; in experiment [4] it was 0 °C; in experiment [5], 0 °C; in experiment [6], 0.3 °C. The results for the ΔTm in experiment [7] and in experiment [8] were 0.4 °C and 0.6 °C, respectively.

Take `C[S+]([O-])c1ccc(CSc2nc(-c3ccc(F)cc3)c(-c3ccncc3)[nH]2)cc1` (centres undefined): the ΔTm was 0 °C in experiment [1]; 0 °C in experiment [2]; 1.5 °C in experiment [3]; -0.1 °C in experiment [4]; 0.1 °C in experiment [5]; 0.2 °C in experiment [6]. Besides, the ΔTm in experiment [7] is 0 °C; in experiment [8], -0.1 °C.

Regarding `COc1cc(C[C@H]2C(=O)OC[C@@H]2Cc2ccc(OC)c(OC)c2)ccc1O` [ARCTIGENIN], the ΔTm in experiment [1] is 0.2 °C; in experiment [2] it was 0.6 °C; in experiment [3], -0.2 °C; in experiment [4], 0.3 °C; in experiment [5], 0.3 °C; in experiment [6], -0.1 °C. The shift in melting temperature (ΔTm) in experiment [7] was -0.2 °C; in experiment [8], 0.7 °C.

With `C/C(O)=C(\C#N)C(=O)Nc1cc(Br)ccc1Br`, the ΔTm in experiment [1] is 0.5 °C; in experiment [2], 0 °C; in experiment [3] it was 0.3 °C; in experiment [4], -0.1 °C; in experiment [5], 0.2 °C; in experiment [6], 0.5 °C. The ΔTm in experiment [7] worked out at 1.8 °C; in experiment [8], 0 °C.

`C=CNC#N`: the ΔTm in experiment [1] is 0.7 °C; in experiment [2], 1.2 °C; in experiment [3], -0.1 °C; in experiment [4], 0.5 °C; in experiment [5], 0.3 °C; in experiment [6], 0.6 °C. The values for the ΔTm in experiment [7] and in experiment [8] were 0.5 °C and 1 °C, respectively.

Turning to `CCOc1ccc(/C=C2/SC(=O)N(CCN)C2=O)cc1` [HIAZOLIDINEDIONE1], the thermal shift (ΔTm) in experiment [1] was 0 °C; in experiment [2] it was -0.5 °C; in experiment [3], 0.5 °C; in experiment [4] it was 0 °C; in experiment [5] it was 0.1 °C; in experiment [6], 0.2 °C. Moreover, the ΔTm in experiment [7] is -1.3 °C; in experiment [8] it was 0.3 °C.

`Cc1[nH]c(/C=C2\C(=O)Nc3ccc(S(=O)(=O)N(C)c4cccc(Cl)c4)cc32)c(C)c1C(=O)N1CCN(C)CC1`: the ΔTm came to 0.5 °C in experiment [1]; 0.8 °C in experiment [2]; 0.1 °C in experiment [3]; 0.6 °C in experiment [4]; 3 °C in experiment [5]; 5.9 °C in experiment [6]. The ΔTm in experiment [7] was determined as 4.2 °C; in experiment [8], 1.5 °C.

For the molecule `Cc1cc(Nc2nc(-c3ccccc3)nc3ccccc23)n[nH]1`, the ΔTm in experiment [1] was 0.7 °C; in experiment [2], 0.6 °C; in experiment [3], 0.1 °C; in experiment [4] it was 1.9 °C; in experiment [5], 2.3 °C; in experiment [6], 2.8 °C. Further, the figures for the ΔTm in experiment [7] and in experiment [8] were 8.6 °C and 0.8 °C, respectively.

In the case of `O=c1c(O)c(-c2ccc(O)c(O)c2)oc2cc(O)cc(O)c12` [QUERCETIN], the ΔTm in experiment [1] was 2.7 °C; in experiment [2], 2.9 °C; in experiment [3], 2.2 °C; in experiment [4], 4.9 °C; in experiment [5], 3.6 °C; in experiment [6], 4.9 °C. Moreover, the ΔTm in experiment [7] came to 7.8 °C; in experiment [8] it was 1.4 °C.

With `COc1cc(O)c2c(c1)oc(=O)c1c3cc(O)c(O)cc3oc21` [WEDELOLACTONE], the ΔTm in experiment [1] is 0.5 °C; in experiment [2] it was 0.7 °C; in experiment [3], 1.5 °C; in experiment [4], 0.2 °C; in experiment [5], 0.2 °C; in experiment [6], 1.2 °C. Also, the figures for the ΔTm in experiment [7] and in experiment [8] were -0.4 °C and 0 °C, respectively.

Regarding `COc1cccc(-c2cc(=O)c3ccccc3o2)c1N`, the ΔTm in experiment [1] is 0.3 °C; in experiment [2], 0 °C; in experiment [3] it was 0.2 °C; in experiment [4] it was 0.1 °C; in experiment [5], -0.1 °C; in experiment [6], 0 °C. The figures for the ΔTm in experiment [7] and in experiment [8] were 0.1 °C and 0.2 °C, respectively.

As for `CSc1nc(-c2ccc(F)cc2)c(-c2ccnc(NC(C)c3ccccc3)c2)[nH]1` (racemic), the ΔTm in experiment [1] was 0.9 °C; in experiment [2] it was 0 °C; in experiment [3] it was 9.5 °C; in experiment [4], -0.3 °C; in experiment [5] it was 0.5 °C; in experiment [6], 0.1 °C. Further, the ΔTm was 0 °C in experiment [7] and 0.9 °C in experiment [8].

`Cc1nc2sccn2c(=O)c1CCN1CCC(=C(c2ccccc2)c2ccc(F)cc2)CC1`: the shift in melting temperature (ΔTm) in experiment [1] is -0.4 °C; in experiment [2], 0.9 °C; in experiment [3], -0.7 °C; in experiment [4], 1.1 °C; in experiment [5] it was 0.5 °C; in experiment [6], 2.8 °C. The ΔTm in experiment [7] is 2.6 °C; in experiment [8], 0.3 °C.

As for `COc1ccc(S(=O)(=O)N(CCO)c2ccccc2CN(C)C/C=C/c2ccc(Cl)cc2)cc1`, the ΔTm in experiment [1] was -1.2 °C; in experiment [2], -1.6 °C; in experiment [3], 0.2 °C; in experiment [4] it was -0.6 °C; in experiment [5] it was 0.4 °C; in experiment [6], -0.3 °C. The ΔTm in experiment [7] and in experiment [8] was 0 °C each time.

For `C[S+]([O-])c1ccc(-c2nc(-c3ccc(F)cc3)c(-c3ccncc3)[nH]2)cc1` (centres undefined) [SB-203580], the ΔTm in experiment [1] is -0.3 °C; in experiment [2] it was 0 °C; in experiment [3], 9.6 °C; in experiment [4], 0 °C; in experiment [5], -0.1 °C; in experiment [6], 0.2 °C. The ΔTm was 3.5 °C in experiment [7] and -0.1 °C in experiment [8].

Regarding `COc1cc2c(cc1OC)-c1n[nH]c(Nc3cccc(F)c3)c1C2`, the ΔTm in experiment [1] is 1.2 °C; in experiment [2], -0.3 °C; in experiment [3], 0.1 °C; in experiment [4], -0.1 °C; in experiment [5] it was 0.3 °C; in experiment [6], 1.1 °C. Moreover, the shift in melting temperature (ΔTm) in experiment [7] was 2.9 °C; in experiment [8], 0.4 °C.

For `CC(C)(C)n1nc(-c2cccc3ccccc23)c2c(N)ncnc21`, the ΔTm in experiment [1] is -0.1 °C; in experiment [2], 0.2 °C; in experiment [3] it was 2.9 °C; in experiment [4], 0.2 °C; in experiment [5], 3.5 °C; in experiment [6], 0.8 °C. In addition, the values for the thermal shift (ΔTm) in experiment [7] and in experiment [8] were 0.1 °C and 0.7 °C, respectively.
